Among the data in US20260062387A1, “SALT-INDUCIBLE KINASE INHIBITOR COMPOUND AND PHARMACEUTICAL COMPOSITION INCLUDING THE SAME” (MITSUBISHI TANABE PHARMA CORPORATION, priority 2023, published 2026) are IC50 values, retold here.

Where only a bound is given, the exact number is not on record here.

Format in all cases: biochemical
Experiment [1] concerns the target GST-tagged SIK2 (Homo sapiens (Human), UniProt Q9H0K1). In words: SIK2 inhibition test (ADP-Glo Max Assay). Conditions: enzyme 3 nM, AMARA Peptide 200 μM, ATP 1 mM, 2 hours room temperature. Summed up:
(§1)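 ADP formed was detected by luciferase luminescence after a 2 h room-temperature reaction with 1 mM ATP, 5 mM MgCl2 and AMARA peptide at 200 μM (SIK1, SIK2) or 100 μM (SIK3). Final GST-enzyme levels were 20 nM SIK1, 3 nM SIK2 and 100 nM SIK3. IC50 came from 16-point concentration-response data.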

Experiment [2] has as its target GST-tagged SIK3 (Homo sapiens (Human), UniProt Q9Y2K2). In words: SIK3 inhibition test (ADP-Glo Max Assay). As to conditions: enzyme 100 nM, AMARA Peptide 100 μM, ATP 1 mM, 2 hours room temperature. Summed up:
as §1

Experiment [3] concerns the target GST-tagged SIK1 (Homo sapiens (Human), UniProt P57059). Kind of experiment: SIK1 inhibition test (ADP-Glo Max Assay). Conditions: enzyme 20 nM, AMARA Peptide 200 μM, ATP 1 mM, 2 hours room temperature. Summed up:
as §1

Sequence of GST-tagged SIK3 (Q9Y2K2 whole entry): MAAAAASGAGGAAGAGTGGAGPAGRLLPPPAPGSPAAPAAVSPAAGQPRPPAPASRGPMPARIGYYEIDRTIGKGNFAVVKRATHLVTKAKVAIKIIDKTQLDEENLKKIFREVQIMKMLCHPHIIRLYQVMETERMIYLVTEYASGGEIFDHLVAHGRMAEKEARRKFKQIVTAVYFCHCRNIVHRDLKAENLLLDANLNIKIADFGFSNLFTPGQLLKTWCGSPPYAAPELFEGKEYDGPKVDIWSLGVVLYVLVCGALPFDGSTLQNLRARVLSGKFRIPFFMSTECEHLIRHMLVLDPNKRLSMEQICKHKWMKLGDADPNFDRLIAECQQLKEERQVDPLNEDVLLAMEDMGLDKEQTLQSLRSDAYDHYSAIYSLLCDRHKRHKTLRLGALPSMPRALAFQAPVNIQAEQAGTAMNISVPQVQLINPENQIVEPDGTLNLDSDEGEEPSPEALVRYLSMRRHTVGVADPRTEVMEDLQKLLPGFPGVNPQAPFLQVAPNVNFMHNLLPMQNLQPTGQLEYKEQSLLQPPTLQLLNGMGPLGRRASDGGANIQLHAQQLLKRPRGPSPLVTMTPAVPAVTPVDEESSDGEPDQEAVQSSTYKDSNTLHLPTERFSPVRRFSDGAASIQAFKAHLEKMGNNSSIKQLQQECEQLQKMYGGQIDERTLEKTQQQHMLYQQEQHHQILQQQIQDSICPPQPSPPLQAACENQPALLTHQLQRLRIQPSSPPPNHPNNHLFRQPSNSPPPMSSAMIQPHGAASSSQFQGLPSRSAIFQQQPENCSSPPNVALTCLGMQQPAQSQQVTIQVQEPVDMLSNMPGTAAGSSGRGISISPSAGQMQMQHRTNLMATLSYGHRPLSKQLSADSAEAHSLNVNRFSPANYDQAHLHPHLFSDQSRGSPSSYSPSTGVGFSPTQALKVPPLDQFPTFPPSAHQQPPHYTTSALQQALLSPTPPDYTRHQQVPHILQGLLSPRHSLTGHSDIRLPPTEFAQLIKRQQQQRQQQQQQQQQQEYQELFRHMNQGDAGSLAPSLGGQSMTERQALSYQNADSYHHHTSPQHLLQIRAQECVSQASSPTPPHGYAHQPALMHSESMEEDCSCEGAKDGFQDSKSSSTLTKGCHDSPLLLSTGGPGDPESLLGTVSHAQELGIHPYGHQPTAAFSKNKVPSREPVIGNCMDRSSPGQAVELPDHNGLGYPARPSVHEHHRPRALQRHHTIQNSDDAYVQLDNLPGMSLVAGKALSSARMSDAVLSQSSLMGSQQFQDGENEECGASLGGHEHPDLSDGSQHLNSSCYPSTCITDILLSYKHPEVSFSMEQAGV
Sequence of GST-tagged SIK1 (P57059 whole entry): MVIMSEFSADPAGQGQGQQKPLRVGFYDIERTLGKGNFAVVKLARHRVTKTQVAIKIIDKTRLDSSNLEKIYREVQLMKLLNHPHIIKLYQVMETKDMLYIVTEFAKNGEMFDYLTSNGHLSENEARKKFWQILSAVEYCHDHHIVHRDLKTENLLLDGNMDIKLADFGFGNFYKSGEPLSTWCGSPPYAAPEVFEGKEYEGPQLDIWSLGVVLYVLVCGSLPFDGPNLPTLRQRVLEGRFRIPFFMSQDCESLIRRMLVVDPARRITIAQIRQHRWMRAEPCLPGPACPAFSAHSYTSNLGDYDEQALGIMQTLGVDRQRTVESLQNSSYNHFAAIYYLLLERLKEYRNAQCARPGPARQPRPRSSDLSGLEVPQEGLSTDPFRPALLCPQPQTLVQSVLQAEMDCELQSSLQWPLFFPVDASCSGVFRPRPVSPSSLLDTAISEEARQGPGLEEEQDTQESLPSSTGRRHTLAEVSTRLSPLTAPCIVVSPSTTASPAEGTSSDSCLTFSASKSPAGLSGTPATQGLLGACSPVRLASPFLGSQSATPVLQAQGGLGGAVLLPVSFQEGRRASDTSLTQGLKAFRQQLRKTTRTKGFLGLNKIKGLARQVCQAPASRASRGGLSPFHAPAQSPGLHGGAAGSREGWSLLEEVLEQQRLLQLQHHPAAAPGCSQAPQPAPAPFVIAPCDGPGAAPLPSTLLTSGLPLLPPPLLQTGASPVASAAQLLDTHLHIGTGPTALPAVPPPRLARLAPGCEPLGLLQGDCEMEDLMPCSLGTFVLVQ
Sequence of GST-tagged SIK2 (Q9H0K1 whole entry): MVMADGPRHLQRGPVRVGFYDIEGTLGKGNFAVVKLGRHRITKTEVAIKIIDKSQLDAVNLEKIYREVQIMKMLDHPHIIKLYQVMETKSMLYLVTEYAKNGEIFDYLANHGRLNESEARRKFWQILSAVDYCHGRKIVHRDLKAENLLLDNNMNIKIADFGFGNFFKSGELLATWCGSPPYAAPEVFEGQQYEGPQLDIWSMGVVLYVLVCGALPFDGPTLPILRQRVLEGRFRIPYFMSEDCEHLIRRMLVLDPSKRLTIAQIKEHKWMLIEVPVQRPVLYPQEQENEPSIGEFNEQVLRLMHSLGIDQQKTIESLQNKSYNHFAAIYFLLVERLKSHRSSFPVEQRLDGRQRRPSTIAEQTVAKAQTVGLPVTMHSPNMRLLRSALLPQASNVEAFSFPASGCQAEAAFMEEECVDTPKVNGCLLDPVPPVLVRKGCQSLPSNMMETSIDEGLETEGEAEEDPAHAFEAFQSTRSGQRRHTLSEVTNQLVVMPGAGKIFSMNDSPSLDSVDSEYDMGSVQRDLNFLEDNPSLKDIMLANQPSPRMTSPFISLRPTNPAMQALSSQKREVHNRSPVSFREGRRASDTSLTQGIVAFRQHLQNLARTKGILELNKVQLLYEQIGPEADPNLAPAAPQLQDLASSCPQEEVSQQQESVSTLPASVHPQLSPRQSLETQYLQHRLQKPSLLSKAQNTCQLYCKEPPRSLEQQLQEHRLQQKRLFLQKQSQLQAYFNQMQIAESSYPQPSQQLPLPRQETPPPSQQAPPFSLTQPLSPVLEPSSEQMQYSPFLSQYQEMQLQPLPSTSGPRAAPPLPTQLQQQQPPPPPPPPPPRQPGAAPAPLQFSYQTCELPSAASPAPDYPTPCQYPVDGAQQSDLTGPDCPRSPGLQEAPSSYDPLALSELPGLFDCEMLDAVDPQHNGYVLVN

For the compound `COc1cc(-c2c3c(C(F)F)cc(-c4cnn(CCS(C)(=O)=O)c4)cc3nn2C)cc(OC(F)F)c1C(=O)N1CC(O)(C(F)F)C1` [Example 66, [2-(difluoromethoxy)-4-[4-(difluoromethyl)-2-methyl-6-[1-(2-methylsulfonylethyl)pyrazol-4-yl)indazol-3-yl]-6-methoxyphenyl]-[3-(difluoromethyl)-3-hydroxyazetidin-1-yl]methanone], the values for the concentration for half-maximal inhibition (IC50) in experiment [1], in experiment [2] and in experiment [3] were 14.1 nM, 5.7 nM and 11.4 nM, respectively.

For the compound `COc1cc(-c2c3c(C#N)cc(-c4cnn(CC(=O)N(C)C)c4)cc3nn2C)cc(OC(F)F)c1C(=O)N1CC(O)(C(F)(F)F)C1` [Example 17, 2-[4-[4-cyano-3-[3-(difluoromethoxy)-4-[3-hydroxy-3-(trifluoromethyl)azetidin-1-carbonyl]-5-methoxyphenyl]-2-methylindazol-6-yl]pyrazol-1-yl]-N,N-dimethylacetamide], the IC50 in experiment [1] was 8.5 nM; in experiment [2] it was 7.1 nM; in experiment [3], 5.4 nM.

`COc1cc(-c2c3c(C#N)cc(-c4cnn(C)c4)cc3nn2C)cc(OC(F)F)c1C(=O)NCC1(F)CC1` [Example 12, 4-[4-cyano-2-methyl-6-(1-methylpyrazol-4-yl)indazol-3-yl]-2-(difluoromethoxy)-N-[(1-fluorocyclopropyl)methyl]-6-methoxybenzamide]: the half-inhibitory concentration (IC50) in experiment [1] worked out at 7 nM; in experiment [2], 7 nM; in experiment [3], 12.4 nM.

Turning to `COc1cc(-c2c3ccc(N4CCN(C)CC4)cc3nn2C)cc2c1C(=O)N(CC(F)(F)F)CC2` [Comparative Example 8, 8-methoxy-6-(2-methyl-6-(4-methylpiperazin-1-yl)-2H-indazol-3-yl)-2-(2,2,2-trifluoroethyl)-3,4-dihydroisoquinolin-1(2H)-one, reference compound], the figures for the 50% inhibitory concentration (IC50) in experiment [1], in experiment [2] and in experiment [3] were 683 nM, 887 nM and greater than 10000 nM, respectively.

`COc1cc(-c2c3c(C(F)F)cc(-c4cnn(C[C@H]5C[C@@H](O)C5)c4)cc3nn2C)cc(OC(F)F)c1C(=O)N[C@@H]1CC1(F)F` [Example 121, N-[(1R)-2,2-difluorocyclopropyl]-2-(difluoromethoxy)-4-[4-(difluoromethyl)-6-[1-[(cis-3-hydroxycyclobutyl)methyl]pyrazol-4-yl]-2-methylindazol-3-yl]-6-methoxybenzamide]: the values for the IC50 in experiment [1], in experiment [2] and in experiment [3] were 4.8 nM, 1.1 nM and 9.5 nM, respectively.

In the case of `COCCn1cc(-c2cc(C(F)F)c3c(-c4cc(OC)c(C(N)=O)c(OC(F)F)c4)n(C)nc3c2)cn1` [Example 134, 2-(difluoromethoxy)-4-[4-(difluoromethyl)-6-[1-(2-methoxyethyl)pyrazol-4-yl]-2-methylindazol-3-yl]-6-methoxybenzamide], the IC50 in experiment [1] worked out at 3.3 nM; in experiment [2], 5.7 nM; in experiment [3] it was 13.6 nM.

For the compound `COc1cc(-c2c3c(C#N)cc(-c4cnn(CC5CCCS5(=O)=O)c4)cc3nn2C)cc(OC(F)F)c1C(=O)NCC1(F)CC1` (stereo not drawn) [Example 82, 4-[4-cyano-6-[1-[(1,1-dioxothiolan-2-yl)methyl]pyrazol-4-yl]-2-methylindazol-3-yl]-2-(difluoromethoxy)-N-[(1-fluorocyclopropyl)methyl]-6-methoxybenzamide], the half-inhibitory concentration (IC50) in experiment [1] was 7.5 nM; in experiment [2], 16.7 nM; in experiment [3], 16 nM.

As to `COc1cc(-c2c3c(C(F)F)cc(-c4cn[nH]c4)cc3nn2C)cc(OC(F)F)c1C(=O)N[C@@H]1CC1(F)F` [Example 150, N-[(1R)-2,2-difluorocyclopropyl]-2-(difluoromethoxy)-4-[4-(difluoromethyl)-2-methyl-6-(1H-pyrazol-4-yl)indazol-3-yl]-6-methoxybenzamide], the figures for the 50% inhibitory concentration (IC50) in experiment [1], in experiment [2] and in experiment [3] were 2.4 nM, 1.3 nM and 10.2 nM, respectively.

In the case of `COc1cc(-c2c3c(C(F)F)cc(-c4cnn(CC[C@@H](C)O)c4)cc3nn2C)cc(OC(F)F)c1C(=O)N[C@@H]1CC1(F)F` [Example 120, N-[(1R)-2,2-difluorocyclopropyl]-2-(difluoromethoxy)-4-[4-(difluoromethyl)-6-[1-[(3R)-3-hydroxybutyl]pyrazol-4-yl]-2-methylindazol-3-yl]-6-methoxybenzamide], the figures for the IC50 in experiment [1], in experiment [2] and in experiment [3] were 3.5 nM, 0.7 nM and 7.8 nM, respectively.

For `COc1cc(-c2c3c(C(F)F)cc(-c4cnn(CC(=O)N(C)C)c4)cc3nn2C)cc(OC(F)F)c1C(=O)N1CC(O)(C(F)(F)F)C1` [Example 60, 2-[4-[3-[3-(difluoromethoxy)-4-[3-hydroxy-3-(trifluoromethyl)azetidin-1-carbonyl]-5-methoxyphenyl]-4-(difluoromethyl)-2-methylindazol-6-yl]pyrazol-1-yl]-N,N-dimethylacetamide], the results for the IC50 in experiment [1], in experiment [2] and in experiment [3] were 4.8 nM, 4.9 nM and 6.9 nM, respectively.

Consider `COc1cc(-c2c3c(C#N)cc(-c4cnn(C(C)(C)C)c4)cc3nn2C)cc(OC(F)F)c1C(=O)N[C@@H]1C[C@@H]1F` [Example 20, 4-[6-(1-tert-butylpyrazol-4-yl)-4-cyano-2-methylindazol-3-yl]-2-(difluoromethoxy)-N-[(1R,2S)-2-fluorocyclopropyl]-6-methoxybenzamide], for which the IC50 stood at 5.8 nM in experiment [1], 13.7 nM in experiment [2] and 4.4 nM in experiment [3].

In the case of `COc1cc(-c2c3c(C#N)cc(-c4cnn(CC5CCS5(=O)=O)c4)cc3nn2C)cc(OC(F)F)c1C(=O)NCC1(F)CC1` (stereo not drawn) [Example 81, 4-[4-cyano-6-[1-[(1,1-dioxothietan-2-yl)methyl]pyrazol-4-yl]-2-methylindazol-3-yl]-2-(difluoromethoxy)-N-[(1-fluorocyclopropyl)methyl]-6-methoxybenzamide], the IC50 in experiment [1] worked out at 7.3 nM; in experiment [2], 10.6 nM; in experiment [3], 13.3 nM.

As to `COc1cc(-c2cnn(C[C@H](C)O)c2)cc2nn(C)c(-c3cc(OC(F)F)c4c(c3)[C@@H](C)CNC4=O)c12` (single isomer, unassigned) [Example 176], the IC50 in experiment [1] worked out at 5.9 nM; in experiment [2], 11.9 nM; in experiment [3] it was 11 nM.

Regarding `CCn1cc(-c2cc(C#N)c3c(-c4cc(OC)c(C(N)=O)c(OC(F)F)c4)n(C)nc3c2)cn1` [Example 141, 4-[4-cyano-6-(1-ethylpyrazol-4-yl)-2-methylindazol-3-yl]-2-(difluoromethoxy)-6-methoxybenzamide], the values for the half-inhibitory concentration (IC50) in experiment [1], in experiment [2] and in experiment [3] were 2 nM, 2.7 nM and 17.6 nM, respectively.

On to `CCn1cc(-c2cc(C(F)F)c3c(-c4cc(OC)c(C(N)=O)c(OC(F)F)c4)n(C)nc3c2)cn1` [Example 112, 2-(difluoromethoxy)-4-[4-(difluoromethyl)-6-(1-ethylpyrazol-4-yl)-2-methylindazol-3-yl]-6-methoxybenzamide], for which the IC50 in experiment [1] came out at 13.7 nM; in experiment [2] it was 3 nM; in experiment [3] it was 16.6 nM.

For the compound `CCCCn1cc(-c2cc(C#N)c3c(-c4cc(OC)c5c(c4)[C@@H](C)CNC5=O)n(C)nc3c2)cn1` (single isomer, unassigned) [Example 168], the IC50 in experiment [1] was found to be 1.4 nM; in experiment [2], 2.7 nM; in experiment [3], 6.8 nM.
